Data from the supplement of paper PMC10331698.
± gives the standard deviation of the averaged measurements.

Key:
Assay in all cases: level (log10 ratio to DMSO vehicle control); higher = higher biomarker level / cell amount than vehicle control
[1] = compound: CCOC(=O)CC(=O)C(F)(F)C(F)(F)F [Ethyl pentafluoropropionyl acetate] (in DMSO)
Description: (§1)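 BioMAP Diversity Plus panel of 12 human primary cell co-culture systems (3C, 4H, LPS, SAg, BT, BF4T, BE3C, CASM3C, HDF3CGF, KF3CT, MyoF, Mphg). Compounds were added 1 h before stimulation and left for 24 h (MyoF 48 h; BT 72 h for soluble read-outs or 6 d for IgG). Biomarkers were read by ELISA, cytotoxicity by SRB, PBMC viability and proliferation by Alamar Blue. Each well value was divided by the mean of 8 DMSO control wells on the same plate and log10 transformed; duplicate blinded samples were tested at 4 concentrations.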

[2] = compound: CO[Si](C)(CCC(F)(F)C(F)(F)C(F)(F)C(F)(F)C(F)(F)C(F)(F)F)OC [Dimethoxymethyl((perfluorohexyl)ethyl)silane] (in DMSO)
Description: as §1

[3] = compound: O=C(O)C(F)(F)OC(F)(F)C(F)(F)OC(F)(F)C(F)(F)OC(F)(F)C(F)(F)C(F)(F)C(F)(F)F [Perfluoro-3,6,9-trioxatridecanoic acid] (in DMSO); conditions: 6700 nM
Description: as §1

[4] = compound: O=C(O)C(F)(OC(F)(F)C(F)(F)C(F)(F)F)C(F)(F)F [Ammonium perfluoro-2-methyl-3-oxahexanoate] (in Water)
Description: as §1

[5] = compound: O=S(=O)(O)C(F)(F)C(F)(F)C(F)(F)C(F)(F)C(F)(F)C(F)(F)C(F)(F)F [Perfluoroheptanesulfonic acid] (in DMSO)
Description: as §1

[6] = compound: O=S(=O)(O)C(F)(F)C(F)(F)OC(F)(F)C(F)(F)F [Perfluoro(2-ethoxyethane)sulfonic acid] (in DMSO)
Description: as §1

[7] = compound: OCCC(F)(F)C(F)(F)C(F)(F)C(F)(F)F [4:2 Fluorotelomer alcohol] (in DMSO)
Description: as §1

Test System	level (log10) ([1]; 6700 nM)	level (log10) ([1]; 20000 nM)	level (log10) ([1]; 60000 nM)	level (log10) ([2]; 6700 nM)	level (log10) ([2]; 20000 nM)	level (log10) [3]	level (log10) ([4]; 6700 nM)	level (log10) ([4]; 20000 nM)	level (log10) ([4]; 60000 nM)	level (log10) ([5]; 1500 nM)	level (log10) ([5]; 4400 nM)	level (log10) ([5]; 13000 nM)	level (log10) ([5]; 40000 nM)	level (log10) ([6]; 6700 nM)	level (log10) ([6]; 20000 nM)	level (log10) ([6]; 60000 nM)	level (log10) ([7]; 6700 nM)	level (log10) ([7]; 20000 nM)	level (log10) ([7]; 60000 nM)
3C:HLA-DR	0.019 ± 0.0099	0.0125 ± 0.054	0.01 ± 0.047	0.013 ± 0.014	0.029 ± 0.013	-0.018 ± 0.04	0.0075 ± 0.011	0.0175 ± 0.028	0.016 ± 0.0014	0.0125 ± 0.0064	-0.0075 ± 0.0092	-0.005 ± 0.024	0.008 ± 0.016	-0.005	-0.0045 ± 0.005	0.008 ± 0.0099	-0.019	-0.0145 ± 0.0092	0 ± 0.011
BT:sIL-17F	0.0355 ± 0.0092	0.0155 ± 0.0035	-0.012 ± 0.093	0.074 ± 0.0014	0.102 ± 0.064	0.018 ± 0.027	0.111 ± 0.016	0.116 ± 0.012	0.0455 ± 0.012	-0.0155 ± 0.096	0.0185 ± 0.025	0.0535 ± 0.064	-0.004 ± 0.067	-0.0315 ± 0.022	-0.071 ± 0.031	-0.0005 ± 0.021	0.0025 ± 0.03	0.075 ± 0.055	0.0675 ± 0.14
BF4T:CD106/VCAM-1	-0.0035 ± 0.016	0.0155 ± 0.013	-0.037 ± 0.031	0.018 ± 0.0014	-0.003 ± 0.02	-0.205 ± 0.067	-0.0735 ± 0.039	-0.018 ± 0.0085	-0.008 ± 0.0014	0.017 ± 0.024	0.001 ± 0.0042	-0.0765 ± 0.0064	-0.094 ± 0.0099	0.003 ± 0.0057	0.0045 ± 0.028	0.021 ± 0.055	-0.049 ± 0.083	0.022 ± 0.062	0.0485 ± 0.083
LPS:CXCL8/IL-8	-0.022 ± 0.025	-0.01 ± 0.0071	-0.0005 ± 0.023	0.0325 ± 0.03	0.065 ± 0.0071	-0.0465 ± 0.061	0.023 ± 0.031	0.0895 ± 0.016	0.131 ± 0.017	0.015 ± 0.0071	-0.038 ± 0.0014	-0.0185 ± 0.033	0.031 ± 0.09	0.0585 ± 0.025	0.108 ± 0.07	0.21 ± 0.04	-0.0255 ± 0.015	-0.0005 ± 0.0078	-0.005 ± 0.024
BF4T:Keratin 8/18	0.0085 ± 0.005	0.0275 ± 0.052	0.002 ± 0.016	0.029 ± 0.034	0.006 ± 0.016	-0.0195 ± 0.079	-0.0205 ± 0.0078	-0.008 ± 0.035	-0.022 ± 0.014	0.009 ± 0.025	-0.012 ± 0.013	-0.027 ± 0.0014	0.0125 ± 0.015	0.0015 ± 0.012	-0.01 ± 0.0028	0.023 ± 0.037	-0.026 ± 0.021	-0.0185 ± 0.039	0.017 ± 0.0028
BT:sIL-17A	-0.088 ± 0.0014	-0.0195 ± 0.032	-0.0685 ± 0.081	-0.0265 ± 0.029	-0.025 ± 0.17	0.0515 ± 0.14	0.001 ± 0.02	0.036 ± 0.037	-0.174 ± 0.096	0.0335 ± 0.076	0.113 ± 0.035	0.026 ± 0.14	-0.078 ± 0.058	-0.0995 ± 0.17	-0.131 ± 0.05	-0.148 ± 0.19	-0.007 ± 0.21	-0.043 ± 0.11	-0.037 ± 0.18
LPS:SRB	0.0015 ± 0.0021	0 ± 0.0028	-0.004 ± 0.0085	-0.0025 ± 0.0064	0.003 ± 0.0085	0.008 ± 0.0071	-0.009 ± 0.0028	-0.0075 ± 0.00071	-0.009 ± 0.0014	-0.0105 ± 0.005	-0.0165 ± 0.0021	-0.002 ± 0.0085	0.007 ± 0.02	-0.0175 ± 0.0021	-0.012	-0.0145 ± 0.0064	-0.012 ± 0.0057	-0.0145 ± 0.0092	-0.006 ± 0.0014
LPS:CCL2/MCP-1	-0.025 ± 0.0085	-0.0345 ± 0.018	-0.0125 ± 0.018	-0.0155 ± 0.028	0.013 ± 0.048	-0.0325 ± 0.023	0.0325 ± 0.033	-0.017 ± 0.023	-0.001 ± 0.0014	0.0045 ± 0.037	-0.0455 ± 0.026	-0.005 ± 0.042	0.014 ± 0.1	0.012 ± 0.0057	0.021 ± 0.0071	0.032 ± 0.035	-0.0125 ± 0.021	-0.0095 ± 0.00071	0.019 ± 0.0057
BF4T:tPA	-0.0045 ± 0.0092	-0.0035 ± 0.0092	-0.0145 ± 0.011	0.0005 ± 0.023	-0.015 ± 0.0028	-0.185 ± 0.057	0.0405 ± 0.0078	0.0575 ± 0.033	0.0185 ± 0.019	0.0235 ± 0.052	-0.0065 ± 0.0064	-0.0165 ± 0.025	0.0225 ± 0.039	-0.0095 ± 0.022	-0.004 ± 0.021	0.017 ± 0.05	-0.0085 ± 0.056	-0.0155 ± 0.071	0.022
3C:Proliferation	-0.0145 ± 0.043	-0.033 ± 0.011	-0.0135 ± 0.026	0.003 ± 0.014	-0.0055 ± 0.03	0.0425 ± 0.016	-0.0765 ± 0.015	-0.136 ± 0.031	-0.149 ± 0.023	-0.0785 ± 0.13	-0.0425 ± 0.044	0.0015 ± 0.022	-0.0275 ± 0.021	-0.043 ± 0.025	-0.027 ± 0.034	-0.0325 ± 0.042	-0.011 ± 0.014	-0.0175 ± 0.032	0.013 ± 0.024
BE3C:CXCL10/IP-10	-0.004 ± 0.011	-0.013 ± 0.0028	-0.008 ± 0.0042	-0.0025 ± 0.0078	-0.0065 ± 0.0021	-1.1 ± 0.023	-0.0095 ± 0.013	-0.001 ± 0.0042	0.0115 ± 0.0092	0.0075 ± 0.0035	0.0055 ± 0.0078	-0.01 ± 0.024	-0.039 ± 0.016	-0.008 ± 0.02	-0.024 ± 0.033	-0.01 ± 0.0071	-0.009 ± 0.021	0.002 ± 0.016	-0.0015 ± 0.0035
BF4T:MMP-9	0.002 ± 0.038	-0.007 ± 0.044	-0.007 ± 0.044	-0.0065 ± 0.037	-0.001 ± 0.017	-0.106 ± 0.079	0.0275 ± 0.005	0.047 ± 0.017	0.075 ± 0.013	0.0155 ± 0.08	-0.031 ± 0.033	-0.0335 ± 0.054	-0.003 ± 0.041	0.003 ± 0.042	-0.0005 ± 0.019	0.0295 ± 0.0021	-0.0075 ± 0.03	-0.013 ± 0.0071	-0.011 ± 0.031
BE3C:EGFR	-0.006 ± 0.0099	0.0025 ± 0.005	-0.006 ± 0.023	0.001 ± 0.011	-0.01 ± 0.017	-0.212 ± 0.022	-0.016 ± 0.023	-0.009 ± 0.0085	0.005 ± 0.0057	0.019 ± 0.025	-0.008 ± 0.0042	-0.002 ± 0.023	-0.012 ± 0.038	0 ± 0.0014	-0.019 ± 0.017	-0.004	-0.0165 ± 0.022	-0.002 ± 0.018	0.0315 ± 0.011
